Legend:
[1] = biological target: T1, EP2 receptor (Homo sapiens, UniProt P43116); assay: EP2 Potency Assay (cAMP TR-FRET, CHO-K1 cells transfected with EP2 receptor, PGE2 at EC80); format: cell-based; details: CHO-K1 cells expressing EP2, prostaglandin E2 at EC80, read-out: EP2 Potency (IC50 category)
T1 construct: expressed in transfected cells; host or cells: CHO-K1 cells (ATCC), transient transfection with FuGENE 6
Method in brief: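 CHO-K1 cells transiently transfected with EP2 and seeded 24 h after transfection. IC50 from curve fit of percent inhibition versus concentration.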

[2] = Human Hepatocyte Stability; format: in vitro ADME; details: human hepatocytes 0.5×10^6 cells/mL, 120 min; for half-life at 1 μM: read-out: T1/2 (hepatic); for microsomal CLint at 1 μM: read-out: in vitro CLint (hepatic)
Procedure: The tested compound was incubated in duplicate with incubation media (Williams' Medium E with 1× GlutaMAX) containing human hepatocytes (0.5×10^6 cells/mL). These incubations were carried out at a final test concentration of 1 μM over a total incubation period of 120 minutes. Samples were taken at 0, 15, 30, 60, 90 and 120 min and the reaction was terminated by addition of acetonitrile containing internal standard (100 nM alprazolam, 200 nM labetalol, 200 nM caffeine and 200 nM diclofenac). Verapamil was used as the positive control in this study. The samples were analyzed by UPLC-MS/MS to determine the concentration of the tested compound and the percentage remaining, intrinsic clearance (in vitro CLint) and half-life (t½) values were calculated.
(§1) Chromatographic analyses were performed on a Shimadzu UPLC apparatus (Kyoto, Japan) consisting of a gradient pump (model LC-30AD), an automatic injector (model HTC PAL System) and an on-line degasser (model DGU-20A5R). Detection was a triple quadrupole tandem mass spectrometer equipped with a turbo ion spray interface (API 4000/Triple Quad 4500/Triple Quad 5500/Triple Quad 6500). Data acquisition and integration were carried out with LC-MS software (Analyst 1.6) linked directly to the LC-MS/MS system. Chromatographic separations were achieved on a XSelect Hss T3 2.5μ (2.1×30 mm) Column. The mobile phase was 0.1% formic acid in water (A) and 0.1% formic acid in acetonitrile (B). The flow rate was 1.0 mL/min and column was maintained at 40° C.
Half-life (T1/2) data is measured in minutes, and in Table B2, the data is grouped into categories of by the following rules: • T1/2 (hepatic): A=200+; B=100 to 200; C=50 to 100; and D<50.
In vitro clearance (CLint) data is measured in μL/min/mg prot, and in Table B3, the data is grouped into categories of by the following rules: • CLint (microsomal): A<5; B=5 to 10; C=10 to 20; and D=20+.

[3] = Human Liver Microsome Stability; format: in vitro ADME; details: human liver microsomes 0.5 mg/mL, 37° C., 60 min; for half-life at 2 μM: read-out: T1/2 (microsomal); for microsomal CLint at 2 μM: read-out: in vitro CLint (microsomal)
Procedure: The tested compound was incubated in duplicate with human liver microsomes (0.5 mg/mL) at 37° C. These incubations were carried out at a final test article concentration of 2 μM over a total incubation period of 60 minutes. Samples were taken at 0, 15, 30, 45 and 60 min and the reaction terminated by addition of 4 volumes of acetonitrile containing internal standard (100 nM alprazolam, 200 nM imipramine, 200 nM labetalol and 2 μM ketoprofen). Diclofenac was used as a positive control in this study. The samples were analyzed by UPLC-MS/MS to determine the concentration of the test compound and the percent remaining, intrinsic clearance (in vitro CLint) and half-life (T1/2) values were calculated.
as §1
Half-life (T1/2) data is measured in minutes, and in Table B2, the data is grouped into categories of by the following rules: • T1/2 (microsomal): A=100+; B=50 to 100; C=20 to 50; D<20.
In vitro clearance (CLint) data is measured in μL/min/mg prot, and in Table B2, the data is grouped into categories of by the following rules: • CLint (microsomal): A<20; B=20 to 50; C=50 to 100; and D=100+.

T1 sequence (P43116 whole entry): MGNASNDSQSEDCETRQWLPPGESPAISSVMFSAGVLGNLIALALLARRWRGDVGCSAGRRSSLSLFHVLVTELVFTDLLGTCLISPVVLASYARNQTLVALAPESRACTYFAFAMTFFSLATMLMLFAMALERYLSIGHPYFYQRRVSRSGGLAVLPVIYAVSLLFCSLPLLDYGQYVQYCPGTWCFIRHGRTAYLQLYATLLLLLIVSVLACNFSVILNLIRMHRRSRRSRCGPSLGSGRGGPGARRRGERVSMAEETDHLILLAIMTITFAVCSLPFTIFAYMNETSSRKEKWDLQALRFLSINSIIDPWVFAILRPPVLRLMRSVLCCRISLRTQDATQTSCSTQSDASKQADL

C[C@@H]1COc2c(Cl)cc(-n3ccc4cc(F)ccc43)cc2CN1Cc1cnc(=O)[nH]c1 [Compound 9]
IC50 [1]: 100 to 500 nM
half-life at 1 μM [2]: < 50 min
microsomal CLint at 1 μM [2]: > 20 µL/min/mg
half-life at 2 μM [3]: 50 to 100 min
microsomal CLint at 2 μM [3]: 20 to 50 µL/min/mg

C[C@@H]1COc2c(Cl)cc(-n3ccc4cc(F)ccc43)cc2CN1Cc1cnc(N)nc1 [Compound 11, 5-{[9-chloro-7-(5-fluoroindol-1-yl)-3-methyl-3,5-dihydro-2H-1,4-benzoxazepin-4-yl]methyl}pyrimidin-2-amine]
IC50 [1]: < 100 nM
half-life at 1 μM [2]: 50 to 100 min
microsomal CLint at 1 μM [2]: > 20 µL/min/mg
half-life at 2 μM [3]: < 20 min
microsomal CLint at 2 μM [3]: > 100 µL/min/mg

COc1ncc(CN2CCOc3c(Cl)cc(-n4ccc5cc(F)ccc54)cc3C2)cn1 [Compound 13]
IC50 [1]: 100 to 500 nM
half-life at 2 μM [3]: < 20 min
microsomal CLint at 2 μM [3]: 50 to 100 µL/min/mg

O=c1ncc(CN2CCOc3c(Cl)cc(-n4ccc5cc(F)ccc54)cc3C2)c[nH]1 [Compound 58]
IC50 [1]: < 100 nM
half-life at 1 μM [2]: > 200 min
microsomal CLint at 1 μM [2]: 5 to 10 µL/min/mg
half-life at 2 μM [3]: > 100 min
microsomal CLint at 2 μM [3]: < 20 µL/min/mg

Cc1c(CN2CCOc3c(Cl)cc(-n4ccc5cc(F)ccc54)cc3C2)cnn1C [Compound 106, 9-chloro-4-((1,5-dimethyl-1H-pyrazol-4-yl)methyl)-7-(5-fluoro-1H-indol-1-yl)-2,3,4,5-tetrahydrobenzo[f][1,4]oxazepane]
IC50 [1]: 500 to 1000 nM
half-life at 2 μM [3]: < 20 min
microsomal CLint at 2 μM [3]: > 100 µL/min/mg

Nc1ncc(CN2CCOc3c(Cl)cc(-n4ccc5cc(F)ccc54)cc3C2)cn1 [Compound 146]
IC50 [1]: < 100 nM
half-life at 1 μM [2]: 100 to 200 min
microsomal CLint at 1 μM [2]: 10 to 20 µL/min/mg
half-life at 2 μM [3]: < 20 min
microsomal CLint at 2 μM [3]: 50 to 100 µL/min/mg

Nc1cnc(CN2CCOc3c(Cl)cc(-n4ccc5cc(F)ccc54)cc3C2)cn1 [Compound 170]
IC50 [1]: 500 to 1000 nM
half-life at 2 μM [3]: 20 to 50 min
microsomal CLint at 2 μM [3]: 20 to 50 µL/min/mg

Fc1ccc2c(ccn2-c2cc(Cl)c3c(c2)CN(Cc2ccnc(C4COC4)c2)CCO3)c1 [Compound 187, 9-chloro-7-(5-fluoroindol-1-yl)-4-{[2-(oxetan-3-yl)pyridin-4-yl]methyl}-3,5-dihydro-2H-1,4-benzoxazepine]
IC50 [1]: 100 to 500 nM
half-life at 1 μM [2]: < 50 min
microsomal CLint at 1 μM [2]: > 20 µL/min/mg
half-life at 2 μM [3]: < 20 min
microsomal CLint at 2 μM [3]: > 100 µL/min/mg

Cc1c(CN2CCOc3c(Cl)cc(-n4ccc5cc(F)ccc54)cc3C2)cc[nH]c1=O [Compound 194, 4-{[9-chloro-7-(5-fluoroindol-1-yl)-3,5-dihydro-2H-1,4-benzoxazepin-4-yl]methyl}-3-methyl-1H-pyridin-2-one]
IC50 [1]: < 100 nM
half-life at 1 μM [2]: 100 to 200 min
microsomal CLint at 1 μM [2]: 10 to 20 µL/min/mg

O=C1CC(CN2CCOc3c(Cl)cc(-n4ccc5cc(F)ccc54)cc3C2)=NN1 [Compound 198, 5-{[9-chloro-7-(5-fluoroindol-1-yl)-3,5-dihydro-2H-1,4-benzoxazepin-4-yl]methyl}-2,4-dihydropyrazol-3-one]
IC50 [1]: 1000 to 5000 nM
half-life at 2 μM [3]: 20 to 50 min
microsomal CLint at 2 μM [3]: 50 to 100 µL/min/mg

O=C1CC(CN2CCOc3c(Cl)cc(-n4ccc5cc(F)ccc54)cc3C2)CCN1 (centres unmarked) [Compound 200, 4-{[9-chloro-7-(5-fluoroindol-1-yl)-3,5-dihydro-2H-1,4-benzoxazepin-4-yl]methyl}piperidin-2-one]
IC50 [1]: 1000 to 5000 nM
half-life at 2 μM [3]: 20 to 50 min
microsomal CLint at 2 μM [3]: 20 to 50 µL/min/mg

O=C1NC=C(CN2CCOc3c(Cl)cc(-n4ccc5cc(F)ccc54)cc3C2)CN1 [Compound 202]
IC50 [1]: 500 to 1000 nM
half-life at 2 μM [3]: 50 to 100 min
microsomal CLint at 2 μM [3]: 20 to 50 µL/min/mg

O=c1cc(CN2CCOc3c(Cl)cc(-n4ccc5cc(F)ccc54)cc3C2)cco1 [Compound 203, 4-{[9-chloro-7-(5-fluoroindol-1-yl)-3,5-dihydro-2H-1,4-benzoxazepin-4-yl]methyl}pyran-2-one]
IC50 [1]: 100 to 500 nM
half-life at 2 μM [3]: < 20 min
microsomal CLint at 2 μM [3]: 50 to 100 µL/min/mg

O=c1cc(CN2CCOc3c(Cl)cc(-n4ccc5cc(F)ccc54)cc3C2)cc[nH]1 [Ref, 4-((9-chloro-7-(5-fluoro-1H-indol-1-yl)-2,3-dihydrobenzo[f][1,4]oxazepin-4(5H)-yl)methyl)pyridin-2(1H)-one, reference compound]
half-life at 1 μM [2]: 100 to 200 min
microsomal CLint at 1 μM [2]: 5 to 10 µL/min/mg
half-life at 2 μM [3]: 20 to 50 min
microsomal CLint at 2 μM [3]: 20 to 50 µL/min/mg

Reference: patent US12624024B2, “EP2 antagonist compounds” (Reservoir Neuroscience, Inc., priority 2021, dated 2026)
